These results are taken from patent publication US20060057093A1, “Preparation for topical use with the function of combating hair loss” (priority 2003, published 2006).

The subject of experiment [1] is transglutaminases in keratinocytes. Conditions: cited from earlier work.
Experiment [2] relates to human fibroblast cultures. Nature of the experiment: cell-stimulating action on human fibroblast cultures. The class given is cell-based. Conditions: active ingredient present in the culture medium. An excerpt: The cell-stimulating action of the complex of amino acids with silanol has been tested on human fibroblast cultures. The increase in cell growth was 46% when that active ingredient was present in the culture medium.

Regarding `CCCC(=O)[O-].[Na+]` [sodium butyrate], the “formation of the corneified enclosure of the corneocytes” value in experiment [1] (keratinocytes in the final stage of differentiation) is recorded as “capable of stimulating”. Also, the “synthesis of transglutaminases in keratinocytes” value in experiment [1] (keratinocytes) is “capable of stimulating the synthesis of transglutaminases”.

With “monomethylsilanol-hydroxyproline aspartate [complex of amino acids with silanol]”, the “increase in cell growth” value in experiment [2] amounted to 46%.
